Test results: ChEMBL document CHEMBL1697692, “Developing structure-activity relationships for the prediction of hepatotoxicity” (Chem Res Toxicol, 2010)
Counter-ions that a name gives are not always drawn.

System: Hepatotoxicity
Experiment: Literature-mined public compounds from Greene et al multi-species hepatotoxicity modelling dataset

CCC1(c2ccc(N)cc2)CCC(=O)NC1=O (stereo not given) [AMINOGLUTETHIMIDE]
Hepatotoxicity: NE: No evidence of hepatotoxicity in any species

CCCCc1ncc(/C=C(\Cc2cccs2)C(=O)O)n1Cc1ccc(C(=O)O)cc1 [EPROSARTAN]
Hepatotoxicity: WE: Weak evidence (<10 case reports) of human hepatotoxicity

N=C(N)NCCC[C@H](N)C(=O)O [ARGININE]
Hepatotoxicity: NE: No evidence of hepatotoxicity in any species

Clc1ccc(COC(Cn2ccnc2)c2ccc(Cl)cc2Cl)c(Cl)c1 (stereo not given) [MICONAZOLE]
Hepatotoxicity: NE: No evidence of hepatotoxicity in any species

Cc1c(C)c2c(c(C)c1O)CCC(C)(COc1ccc(CC3SC(=O)NC3=O)cc1)O2 (stereo not given) [TROGLITAZONE]
Hepatotoxicity: HH: Evidence of human hepatotoxicity

Cn1cnc([N+](=O)[O-])c1Sc1ncnc2nc[nH]c12 [AZATHIOPRINE]
Hepatotoxicity: HH: Evidence of human hepatotoxicity

CC(C)(C)NC(=O)[C@@H]1C[C@@H]2CCCC[C@@H]2CN1C[C@@H](O)[C@H](Cc1ccccc1)NC(=O)[C@H](CC(N)=O)NC(=O)c1ccc2ccccc2n1.CS(=O)(=O)O [SAQUINAVIR MESYLATE]
Hepatotoxicity: HH: Evidence of human hepatotoxicity

Nc1nc(Cl)nc2c1ncn2[C@H]1C[C@H](O)[C@@H](CO)O1 [CLADRIBINE]
Hepatotoxicity: NE: No evidence of hepatotoxicity in any species

Cl.Cl.O=C1c2c(O)ccc(O)c2C(=O)c2c(NCCNCCO)ccc(NCCNCCO)c21 [MITOXANTRONE HYDROCHLORIDE]
Hepatotoxicity: HH: Evidence of human hepatotoxicity

O=C(COc1ccc(Cl)cc1)N1CCN(Cc2ccc3c(c2)OCO3)CC1 [FIPEXIDE]
Hepatotoxicity: HH: Evidence of human hepatotoxicity

NS(=O)(=O)c1cc2c(cc1Cl)NCNS2(=O)=O [HYDROCHLOROTHIAZIDE]
Hepatotoxicity: HH: Evidence of human hepatotoxicity

CCO.C[C@H]1c2cccc(O)c2C(=O)C2=C(O)[C@]3(O)C(=O)C(C(N)=O)=C(O)[C@@H](N(C)C)[C@@H]3[C@@H](O)[C@@H]21.Cl.O
Hepatotoxicity: HH: Evidence of human hepatotoxicity

O=C(O)CCc1nc(-c2ccccc2)c(-c2ccccc2)o1 [OXAPROZIN]
Hepatotoxicity: HH: Evidence of human hepatotoxicity

C[N+](C)(C)CC(=O)O.[Cl-] [BETAINE HYDROCHLORIDE]
Hepatotoxicity: NE: No evidence of hepatotoxicity in any species

CC1(C)S[C@@H]2[C@H](NC(=O)[C@H](NC(=O)N3CCN(S(C)(=O)=O)C3=O)c3ccccc3)C(=O)N2[C@H]1C(=O)[O-].[Na+] [MEZLOCILLIN SODIUM]
Hepatotoxicity: HH: Evidence of human hepatotoxicity

COc1ccc(CCN2CCC(Nc3nc4ccccc4n3Cc3ccc(F)cc3)CC2)cc1 [ASTEMIZOLE]
Hepatotoxicity: NE: No evidence of hepatotoxicity in any species

CC(C)NCC(O)COc1ccc(CC(N)=O)cc1 (stereo not given) [ATENOLOL]
Hepatotoxicity: NE: No evidence of hepatotoxicity in any species

COC(=O)Nc1nc2ccccc2[nH]1 [CARBENDAZIM]
Hepatotoxicity: AH: Evidence for animal hepatotoxicity but not tested in humans

CC(=O)CC(c1ccccc1)c1c(O)c2ccccc2oc1=O (stereo not given) [WARFARIN]
Hepatotoxicity: WE: Weak evidence (<10 case reports) of human hepatotoxicity

CC1(C)S[C@@H]2[C@H](NC(=O)Cc3ccccc3)C(=O)N2[C@H]1C(=O)[O-].[Na+] [PENICILLIN G SODIUM]
Hepatotoxicity: HH: Evidence of human hepatotoxicity

CC(C)(O)c1ccccc1CC[C@@H](SCC1(CC(=O)O)CC1)c1cccc(/C=C/c2ccc3ccc(Cl)cc3n2)c1 [MONTELUKAST]
Hepatotoxicity: WE: Weak evidence (<10 case reports) of human hepatotoxicity

COC(=O)C1=C(C)NC(C)=C(C(=O)OCC(C)C)C1c1ccccc1[N+](=O)[O-] (stereo not given) [NISOLDIPINE]
Hepatotoxicity: NE: No evidence of hepatotoxicity in any species

CC1(COc2ccc(CC3SC(=O)NC3=O)cc2)CCCCC1 (stereo not given) [CIGLITAZONE]
Hepatotoxicity: HH: Evidence of human hepatotoxicity

Cl.Nc1ccc(/N=N/c2ccccc2)c(N)n1 [PHENAZOPYRIDINE HYDROCHLORIDE]
Hepatotoxicity: HH: Evidence of human hepatotoxicity

CCCCN1CCCCC1C(=O)Nc1c(C)cccc1C (stereo not given) [BUPIVACAINE]
Hepatotoxicity: NE: No evidence of hepatotoxicity in any species

C=C1[C@@H]2CCC3[C@@](CC[C@@H]4[C@H](C(=O)O)C[C@@H](O[C@@H]5O[C@H](CO)[C@@H](OS(=O)(=O)[O-])[C@H](OS(=O)(=O)[O-])[C@H]5OC(=O)CC(C)C)C[C@@]34C)(C2)[C@@H]1O.[K+].[K+] (stereo not given in full) [ATRACTYLOSIDE]
Hepatotoxicity: HH: Evidence of human hepatotoxicity

O=C(c1ccc(OCCN2CCCCC2)cc1)c1c(-c2ccc(O)cc2)sc2cc(O)ccc12 [RALOXIFENE]
Hepatotoxicity: WE: Weak evidence (<10 case reports) of human hepatotoxicity

CN(C)/N=N/c1[nH]cnc1C(N)=O [DACARBAZINE]
Hepatotoxicity: HH: Evidence of human hepatotoxicity

C=CC(O)CC#N (stereo not given)
Hepatotoxicity: NE: No evidence of hepatotoxicity in any species

C=CCOC=O [ALLYL FORMATE]
Hepatotoxicity: HH: Evidence of human hepatotoxicity

O=C(O)c1cc(/N=N/c2ccc(S(=O)(=O)Nc3ccccn3)cc2)ccc1O [SULFASALAZINE]
Hepatotoxicity: HH: Evidence of human hepatotoxicity

C=CCO [ALLYL ALCOHOL]
Hepatotoxicity: HH: Evidence of human hepatotoxicity

CC(C)(C)c1ccc(C(O)CCCN2CCC(C(O)(c3ccccc3)c3ccccc3)CC2)cc1 (stereo not given) [TERFENADINE]
Hepatotoxicity: NE: No evidence of hepatotoxicity in any species

C=C(C)[C@H]1Cc2c(ccc3c2O[C@@H]2COc4cc(OC)c(OC)cc4[C@@H]2C3=O)O1 [ROTENONE]
Hepatotoxicity: AH: Evidence for animal hepatotoxicity but not tested in humans

CCCCNc1cc(C(=O)O)cc(S(N)(=O)=O)c1Oc1ccccc1 [BUMETANIDE]
Hepatotoxicity: HH: Evidence of human hepatotoxicity

Oc1ccccc1Br
Hepatotoxicity: AH: Evidence for animal hepatotoxicity but not tested in humans

CC(C)(Sc1cc(C(C)(C)C)c(O)c(C(C)(C)C)c1)Sc1cc(C(C)(C)C)c(O)c(C(C)(C)C)c1 [PROBUCOL]
Hepatotoxicity: NE: No evidence of hepatotoxicity in any species

Clc1ccc(CSC(Cn2ccnc2)c2ccc(Cl)cc2Cl)cc1.O=[N+]([O-])O (stereo not given) [SULCONAZOLE NITRATE]
Hepatotoxicity: NE: No evidence of hepatotoxicity in any species

Nc1ncn([C@@H]2O[C@H](CO)[C@@H](O)[C@H]2O)c(=O)n1 [AZACITIDINE]
Hepatotoxicity: HH: Evidence of human hepatotoxicity

N[C@@H](Cc1cc(I)c(Oc2ccc(O)c(I)c2)c(I)c1)C(=O)O [LIOTHYRONINE]
Hepatotoxicity: NE: No evidence of hepatotoxicity in any species

CC[C@@H]1C(=O)OC[C@@H]1Cc1cncn1C [PILOCARPINE]
Hepatotoxicity: NE: No evidence of hepatotoxicity in any species

CN(C)CCC(c1ccc(Cl)cc1)c1ccccn1.O=C(O)/C=C\C(=O)O (stereo not given) [CHLORPHENIRAMINE MALEATE]
Hepatotoxicity: HH: Evidence of human hepatotoxicity

CC(=O)OCC[N+](C)(C)C.[Cl-] [ACETYLCHOLINE CHLORIDE]
Hepatotoxicity: NE: No evidence of hepatotoxicity in any species

Cl.NCCNCCNCCN
Hepatotoxicity: HH: Evidence of human hepatotoxicity

Cc1ncc(C[n+]2csc(CCO)c2C)c(N)n1 [THIAMINE ION]
Hepatotoxicity: NE: No evidence of hepatotoxicity in any species

Cc1onc(-c2c(Cl)cccc2Cl)c1C(=O)N[C@@H]1C(=O)N2[C@@H]1SC(C)(C)[C@@H]2C(=O)[O-].O.[Na+] [DICLOXACILLIN SODIUM]
Hepatotoxicity: HH: Evidence of human hepatotoxicity

Nc1nc(=O)[nH]cc1F [FLUCYTOSINE]
Hepatotoxicity: HH: Evidence of human hepatotoxicity

C[n+]1ccc(-c2cc[n+](C)cc2)cc1
Hepatotoxicity: AH: Evidence for animal hepatotoxicity but not tested in humans

CC(C)(C)NC[C@H](O)COc1ccccc1C1CCCC1.CC(C)(C)NC[C@H](O)COc1ccccc1C1CCCC1.O=S(=O)(O)O [PENBUTOLOL SULFATE]
Hepatotoxicity: HH: Evidence of human hepatotoxicity

O=C1NC(=O)C(c2ccccc2)(c2ccccc2)N1 [PHENYTOIN]
Hepatotoxicity: HH: Evidence of human hepatotoxicity

CCCCCCCCCCCCCCCC(=O)OC/C=C(C)/C=C/C=C(C)/C=C/C1=C(C)CCCC1(C)C [VITAMIN A PALMITATE]
Hepatotoxicity: AH: Evidence for animal hepatotoxicity but not tested in humans

C=C1CC[C@@]2(O)[C@H]3Cc4ccc(O)c5c4[C@@]2(CCN3CC2CC2)[C@H]1O5
Hepatotoxicity: NE: No evidence of hepatotoxicity in any species

[N-]=[N+]=CC(=O)OC[C@H](N)C(=O)O [AZASERINE]
Hepatotoxicity: AH: Evidence for animal hepatotoxicity but not tested in humans

Nc1ccc(S(N)(=O)=O)cc1 [SULFANILAMIDE]
Hepatotoxicity: HH: Evidence of human hepatotoxicity

CC[C@@H](CO)NC(=O)[C@@H]1C=C2c3cccc4[nH]cc(c34)C[C@H]2N(C)C1.O=C(O)/C=C\C(=O)O [METHYLERGONOVINE MALEATE]
Hepatotoxicity: NE: No evidence of hepatotoxicity in any species

NCCc1ccc(O)c(O)c1 [DOPAMINE]
Hepatotoxicity: NE: No evidence of hepatotoxicity in any species

COC1=CC(=O)C[C@@H](C)[C@]12Oc1c(Cl)c(OC)cc(OC)c1C2=O [GRISEOFULVIN]
Hepatotoxicity: HH: Evidence of human hepatotoxicity

OC[C@@H](O)[C@@H](O)[C@H](O)[C@@H](O)CO [SORBITOL]
Hepatotoxicity: NE: No evidence of hepatotoxicity in any species

Nc1ccn([C@H]2CC[C@@H](CO)O2)c(=O)n1 [ZALCITABINE]
Hepatotoxicity: NE: No evidence of hepatotoxicity in any species

CC(C)N(CCC(C(N)=O)(c1ccccc1)c1ccccn1)C(C)C.O=P(O)(O)O (stereo not given) [DISOPYRAMIDE PHOSPHATE]
Hepatotoxicity: HH: Evidence of human hepatotoxicity

Nc1ccn([C@@H]2CS[C@H](CO)O2)c(=O)n1 [LAMIVUDINE]
Hepatotoxicity: WE: Weak evidence (<10 case reports) of human hepatotoxicity

CCCNC(=O)NS(=O)(=O)c1ccc(Cl)cc1 [CHLORPROPAMIDE]
Hepatotoxicity: HH: Evidence of human hepatotoxicity

CCOC(=O)C1(c2ccccc2)CCN(CCc2ccc(N)cc2)CC1.Cl [ANILERIDINE HYDROCHLORIDE]
Hepatotoxicity: NE: No evidence of hepatotoxicity in any species

C=C[C@H]1C[N@@]2CC[C@H]1C[C@H]2[C@H](O)c1ccnc2ccc(OC)cc12 [QUININE]
Hepatotoxicity: HH: Evidence of human hepatotoxicity

CC(=O)O.O=C(NCC1CCCCN1)c1cc(OCC(F)(F)F)ccc1OCC(F)(F)F (stereo not given) [FLECAINIDE ACETATE]
Hepatotoxicity: HH: Evidence of human hepatotoxicity
